Assay results taken from US12162879B2, “Pyridopyrimidine derivative, preparation method therefor and medical use thereof” (Jiangsu Hengrui Medicine Co., Ltd., priority 2018, dated 2024).

Test system: peripheral blood mononuclear cells (PBMC)
Experiment: Stimulation of IFNγ secretion from PBMC
Format: cell-based
Conditions: minimum effective concentration, human PBMC, 24 hours
Procedure: The stimulating effect of the compounds of the present invention on the ability of secretion of IL12 and IFN γ from PBMC was determined by the following experimental method.
• 1. RMPI 1640 (Invitrogen, 11875); • 2. FBS (Gibco, 10099-141); • 3. Ficoll-Paque PREMIUM (GE, 17-5442-02); • 4. Trypan blue solution (Sigma, T8154-100 ML); • 5. SepMate™-50 (Stemcell, 15460); • 6. Bright-LineIM blood cell counter (Sigma, Z359629-1EA); • 7. 96-well cell culture plate (Corning, 3599); • 8. 96-well v-bottom plate (Corning, 3894); • 9. Human IL-12 ELISA kit (Neobioscience Technology Co., EHC152.96); • 10. Human IFN γ kit (cisbio, 62HIFNGPEG); and • 11. PHERAStar multi-function microplate reader (BMG, PHERAStar). II. Experimental Procedures
The compound was diluted with pure DMSO to a maximum concentration of 5 mM, and a total of 9 points were obtained by a 4-fold gradient dilution. 4 μl of the compound solution was then added to 196 μl of RMPI 1640 medium containing 10% FBS and mixed well. 50 μl of the mixture was taken and added to a 96-well cell culture plate.
All reagents were equilibrated to room temperature. 60 ml of blood from a healthy human and the same volume of PBS (containing 2% FBS) were added to a 250 ml culture flask, gently pipetted, mixed well and diluted. 15 ml of lymphocyte separation solution Ficoll-Paque PREMIUM was added to a 50 ml PBMC centrifuge tube SepMate™-50, followed by the addition of 30 ml of the above diluted blood. The mixture was centrifuged at 1200 g for 10 minutes at room temperature. The supernatant was taken and then centrifuged at 300 g for 8 minutes. The cells were re-suspended in the RMPI 1640 medium containing 10% FBS and counted, and the number of PBMCs was adjusted to 3.33×10^6 cells/ml. 150 μl of the cell solution was added to the plate containing the compounds, and incubated in an incubator at 37° C., 5.0% CO2 for 24 hours. The cell culture plate was placed in a centrifuge, and centrifuged at 1200 rpm for 10 minutes at room temperature. 150 μl of the supernatant was taken from each well.
The reagents in the Human IFN γ test kit were equilibrated to room temperature. The standard and detection antibody were prepared according to the kit's instruction under dark conditions. 16 μl of the supernatant obtained by centrifugation was added to each well, and 4 μl of freshly prepared mixed detection antibody was added to each well. The solution was mixed well by shaking, and incubated overnight in the dark at room temperature. The plate was read by the PHERAStar multi-function microplate reader.
The concentration of the compound that can stimulate PBMC to produce […] that is 3 times higher than the average value of the group without the compound (SD of the group without the compound) was defined as the minimum effective concentration (MEC) value of the compound.

| Compound | IFNγ MEC [nM] |
| --- | --- |
| CCCC[C@](C)(CO)Nc1nc(N)nc2cc(-c3ccc(CN4CCCC4)nc3)cnc12 [Example 2, (R)-2-((2-Amino-7-(6-(pyrrolidin-1-ylmethyl)pyridin-3-yl)pyrido[3,2-d]pyrimidin-4-yl)amino)-2-methylhexan-1-ol] | 24 |
| CCCC[C@](C)(CO)Nc1nc(N)nc2cc(-c3ccc(C4CCN(C)CC4)nc3)cnc12 [Example 4, (R)-2-((2-Amino-7-(6-(1-methylpiperidin-4-yl)pyridin-3-yl)pyrido[3,2-d]pyrimidin-4-yl)amino)-2-methylhexan-1-ol] | 33 |
